Test system: GM-CSF-induced STAT5 phosphorylation in KU812 cells
Conditions: dasatinib alone 100 nM, GM-CSF 4 ng/ml for 10 minutes, FIG. 6
Method: KU812 cells (a myeloid precursor cell line established from the peripheral blood of a patient in blast crisis of CML) were cultured with 100 nM dasatinib with or without Bion-1 (100 nM) and constitutively stimulated with GM-CSF (4 ng/ml) for 10 minutes.

## Cc1nc(Nc2ncc(C(=O)Nc3c(C)cccc3Cl)s2)cc(N2CCN(CCO)CC2)n1 [dasatinib]
  inhibition of p-STAT5 phosphorylation in the presence of GM-CSF: does not inhibit

Source: patent US20250122295A1, “METHOD OF TREATMENT OF PHILADELPHIA CHROMOSOME POSITIVE LEUKEMIA” (CSL LIMITED, priority 2014, published 2025)
